Data taken from patent EP0326329B1, “Quinazoline derivatives useful as insecticides” (Dow AgroSciences LLC, priority 1988, dated 1989).

Columns and labels:
Type in all cases: in vivo
[1] = test system: Erysiphe graminis tritici (powdery mildew); assay: Greenhouse Test 1, foliar spray fungicide screen (POWD MDEW), host wheat; details: disease control rating, 400 ppm (+++ at 100 ppm)
[2] = test system: Pyricularia oryzae (rice blast); details: disease control rating, foliar spray, host rice; 400 ppm (+++ at 100 ppm)
[3] = test system: Puccinia recondita tritici (leaf rust); assay: Greenhouse Test 1, foliar spray fungicide screen (LEAF RUST), host wheat; details: disease control rating, 400 ppm (+++ at 100 ppm)
[4] = test system: Botrytis cinerea (gray mold); assay: Greenhouse Test 1, foliar spray fungicide screen (GRAY MOLD), host grape berries; details: disease control rating, 400 ppm (+++ at 100 ppm)
[5] = test system: Pseudoperonospora cubensis (downy mildew); assay: Greenhouse Test 1, foliar spray fungicide screen (DOWN MDEW), host squash; details: disease control rating, 400 ppm (+++ at 100 ppm)
[6] = test system: Southern corn rootworm (Diabrotica undecimpuctata howardi Barber); assay: Mite/insect screen, soil treatment (CRW); details: Diabrotica, percent mortality, soil treatment, read-out: CRW RESULTS %; for mortality at 12 ppm: CRW rate 12.00 ppm; for mortality at 24 ppm: CRW rate 24.00 ppm
How it was run: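 Compounds dissolved in acetone/alcohol (50:50) with Toximul R/S emulsifiers, diluted with water. Soil (15 g, with presoaked corn seed) treated with 1 mL test solution, dried 6–12 h, then five 2–3 instar larvae added; held at 23°C. Percent mortality and phytotoxicity scored after standard exposure periods.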

[7] = test system: southern armyworm (Spodopetra eridania Cramer); assay: Mite/insect screen, sprayed squash leaves (SAW); details: Spodoptera eridania, percent mortality, read-out: SAW RESULTS %; for mortality at 200 ppm: spray rate 200 ppm; for mortality at 400 ppm: spray rate 400 ppm
How it was run: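 Compounds dissolved in acetone/alcohol with TOXIMUL R/S emulsifiers, diluted with water to test concentrations, and sprayed to runoff on both leaf surfaces at 10 psi, then dried 1 h. Excised treated squash leaves given southern armyworm larvae; aphid and spider mite tests on sprayed squash cotyledons. Percent mortality and phytotoxicity scored after standard exposure.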

[8] = test system: Twospotted spider mites (Tetranychus urticae Koch); assay: Mite/insect screen, sprayed squash cotyledons (SM); details: Tetranychus urticae, percent mortality, read-out: SM RESULTS %; for mortality at 200 ppm: spray rate 200 ppm; for mortality at 400 ppm: spray rate 400 ppm
How it was run: (§1)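 Mortality and phytotoxicity read after standard exposure periods on sprayed squash: cotyledons for melon aphids and twospotted spider mites, excised leaves placed with southern armyworm larvae. Spray solutions were water dilutions of acetone/alcohol stocks containing TOXIMUL R and S emulsifiers, applied to runoff at 10 psi and air-dried one hour.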

[9] = test system: melon aphids (Aphis gossypii Glover); assay: Mite/insect screen, sprayed squash cotyledons (MA); details: Aphis gossypii, percent mortality, read-out: MA RESULTS %; for mortality at 200 ppm: spray rate 200 ppm; for mortality at 400 ppm: spray rate 400 ppm
How it was run: as §1

SMILES | POWD MDEW [1] | RICE BLAST [2] | LEAF RUST [3] | GRAY MOLD [4] | DOWN MDEW [5] | mortality at 12 ppm [6] | mortality at 24 ppm [6] | mortality at 200 ppm [7] | mortality at 400 ppm [7] | mortality at 200 ppm [8] | mortality at 400 ppm [8] | mortality at 200 ppm [9] | mortality at 400 ppm [9]
CC(C)(C)c1ccc(CCNc2ncnc3c(F)cccc23)cc1 [Example 100, 8-fluoro-N-[2-[4-(t-butyl)phenyl]ethyl]-4-quinazolinamine] | +++ (+++ = 90-100% control at 100 ppm) | +++ (+++ = 90-100% control at 100 ppm) | +++ (+++ = 90-100% control at 100 ppm) | - (- = 0-19% control at 400 ppm) | +++ (+++ = 90-100% control at 100 ppm) | 0% | 100% | 80% | 0% | 80% | 0% | 80% | 0%
c1ccc(CCCCOc2ncnc3ccccc23)cc1 [Example 42, 4-(4-phenylbutoxy)quinazoline] | +++ (+++ = 90-100% control at 100 ppm) | +++ (+++ = 90-100% control at 100 ppm) | +++ (+++ = 90-100% control at 100 ppm) | - (- = 0-19% control at 400 ppm) | +++ (+++ = 90-100% control at 100 ppm) | 0% | 0% | 0% | 50% | 100% | 100% | 100% | 100%
CC(CNc1ncnc2c(F)cccc12)c1ccc(Cl)cc1 (stereo not shown) [Example 17, N-[2-(4-chlorophenyl)propyl]-8-fluoro-4-quinazolinamine] | ++ (++ = 90-100% control at 400 ppm) | +++ (+++ = 90-100% control at 100 ppm) | +++ (+++ = 90-100% control at 100 ppm) | - (- = 0-19% control at 400 ppm) | +++ (+++ = 90-100% control at 100 ppm) |  | 0% |  | 0% |  | 100% |  | 100%
COc1ccccc1CCOc1ncnc2c(F)cccc12 [Example 131, 8-fluoro-4-[2-(2-methoxyphenyl)ethoxy]quinazoline] | +++ (+++ = 90-100% control at 100 ppm) | +++ (+++ = 90-100% control at 100 ppm) | +++ (+++ = 90-100% control at 100 ppm) | - (- = 0-19% control at 400 ppm) | +++ (+++ = 90-100% control at 100 ppm) |  | 0% |  | 0% |  | 0% |  | 0%
Fc1cccc2c(OCCc3ccc(C(F)(F)F)cc3)ncnc12 [Example 118, 8-fluoro-4-[2-(4-trifluoromethyl)ethoxy]quinazoline] | +++ (+++ = 90-100% control at 100 ppm) | +++ (+++ = 90-100% control at 100 ppm) | +++ (+++ = 90-100% control at 100 ppm) | - (- = 0-19% control at 400 ppm) | +++ (+++ = 90-100% control at 100 ppm) | 0% | 0% | 60% | 100% | 100% | 0% | 100% | 0%
CC(C)(C)c1ccc(CCOc2nc(C(Cl)(Cl)Cl)nc3ccccc23)cc1 [Example 172, 2-(trichloromethyl)-4-[2-[4-(t-butyl)phenyl]ethoxy]quinazoline] | - (- = 0-19% control at 400 ppm) | - (- = 0-19% control at 400 ppm) | - (- = 0-19% control at 400 ppm) | - (- = 0-19% control at 400 ppm) | - (- = 0-19% control at 400 ppm) | 100% | 0% | 0% | 0% | 0% | 0% | 40% | 0%
